According to patent publication EP1125946A1, “Cell adhesion therapy through modulation of a Rap family member or of a GEF (guanine nucleotide exchange factor)” (Universitair Medisch Centrum Utrecht, priority 2000, dated 2001):
Values belong to the compound of their own block, whether it stands above or below them.

Experiments:
full length CalDAG-GEF 1 = target: T1, full length CalDAG-GEF 1 (Homo sapiens, UniProt Q7LDG7); assay: in vitro activation of Rap1 (mantGDP-loaded) by full length CalDAG-GEF versus mutant lacking the regulatory domain; assay type: biochemical; settings: 100 µM calcium added; compared with mutant lacking the regulatory domain
T1 construct: To that end full length CalDAG-GEF 1 and a CalDAG-Gef mutants lacking the regulatory domain was compared
T1 sequence (Q7LDG7 1-609): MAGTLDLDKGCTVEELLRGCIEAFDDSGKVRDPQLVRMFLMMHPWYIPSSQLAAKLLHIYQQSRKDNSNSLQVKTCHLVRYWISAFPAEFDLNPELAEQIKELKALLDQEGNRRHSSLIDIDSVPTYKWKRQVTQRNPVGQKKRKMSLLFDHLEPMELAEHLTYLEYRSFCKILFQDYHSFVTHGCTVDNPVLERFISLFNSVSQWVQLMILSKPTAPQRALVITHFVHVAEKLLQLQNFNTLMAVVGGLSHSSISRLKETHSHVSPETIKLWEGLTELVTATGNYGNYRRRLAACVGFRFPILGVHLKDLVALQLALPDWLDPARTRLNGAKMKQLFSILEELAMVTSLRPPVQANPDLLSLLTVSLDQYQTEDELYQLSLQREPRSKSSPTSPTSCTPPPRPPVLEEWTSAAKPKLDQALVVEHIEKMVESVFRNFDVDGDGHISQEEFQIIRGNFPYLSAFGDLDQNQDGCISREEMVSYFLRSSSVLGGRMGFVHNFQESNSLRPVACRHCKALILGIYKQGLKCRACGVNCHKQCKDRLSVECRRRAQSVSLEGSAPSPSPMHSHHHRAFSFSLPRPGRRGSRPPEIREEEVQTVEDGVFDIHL
Protocol: We therefore investigated whether CalDAG-GEF was regulated by an auto-inhibitory domain. To that end full length CalDAG-GEF 1 and a CalDAG-Gef mutants lacking the regulatory domain was compared for in vitro activation of Rap1.
Figure 9. CalDAG-GEF contains an autoinhibitory domain regulated by calcium. Equal amounts of CalDAG-GEF and mutant CalDAG-GEF lacking the DAG and Ca binding domains were incubayed with mantGDP-loaded Rap1 and incubated in the presence or absence of 100 µM calcium.

Ras = assay: GTP-bound GTPase pull-down with GST-Raf-RBD and immunoblotting in Jurkat cells; assay type: cell-based; settings: Jurkat JHMI 2.2 cells, time-course; TPA 100 ng/ml, 5 minutes
Excerpt: (§1) To address which Ras family members, if any, might participate in CD31 signaling, we precipitated endogenous GTPases from lysates of CD31-stimulated Jurkat with GST fusion proteins of Ras family-binding domains (RBDs) of Raf and RalGDS, which bind with high selectivity and specificty to activated Ras and Rap GTPases, respectively (de Rooij and Bos, 1997; Franke et al., 1997). Immunoblotting of precipitated GTPases provides a qualitative representation of GTPase activation status following cell stimulation, corresponding to quantitative changes detected using classical GDP/GTP-binding ratio techniques. […] GTP-bound R-Ras was detected in Raf-RBD pull-downs only following longer exposures of films, reflecting the relatively low levels of R-Ras protein expression in Jurkat. […]
Figure 1. […] Bound GTPases were resolved on SDS-PAGE, transferred to PVDF membrane, and detected by immunoblotting with antibodies against the indicated proteins, followed by enhanced chemiuminescence (ECL). […] JHMI cells were activated for 2 minutes with medium (-), anti-CD3 antibody T3b (1:200) or the indicated anti-CD31 antibodies (10 µg/ml), and Rap1 activation detected as in A. Fold activation of Rap1 compared to untreated cells was obtained by quantitating pixels from representative blots using Adobe Photoshop software. […]

Rap1 = assay: GTP-bound GTPase pull-down with GST-RalGDS-RBD and immunoblotting in Jurkat cells; assay type: cell-based; settings: Jurkat JHMI 2.2 cells; TPA 100 ng/ml, 5 minutes
Excerpt: as §1
Figure 1. […] Bound GTPases were resolved on SDS-PAGE, transferred to PVDF membrane, and detected by immunoblotting with antibodies against the indicated proteins, followed by enhanced chemiuminescence (ECL). […] Fold activation of Rap1 compared to untreated cells was obtained by quantitating pixels from representative blots using Adobe Photoshop software. […] CD31 WT, CD31 GPI, and Y663/686F Jurkat cell lines were stimulated for two minutes with medium (-) or 10 µg/ml PECAM 1.3 antibody and activated Rap1 detected as in A. Results shown in each panel are representative of three independent experiments.

[1] = target: catalytic domain of Epac1 (Homo sapiens, UniProt O95398)
catalytic domain of Epac1, sequence (O95398 44-371): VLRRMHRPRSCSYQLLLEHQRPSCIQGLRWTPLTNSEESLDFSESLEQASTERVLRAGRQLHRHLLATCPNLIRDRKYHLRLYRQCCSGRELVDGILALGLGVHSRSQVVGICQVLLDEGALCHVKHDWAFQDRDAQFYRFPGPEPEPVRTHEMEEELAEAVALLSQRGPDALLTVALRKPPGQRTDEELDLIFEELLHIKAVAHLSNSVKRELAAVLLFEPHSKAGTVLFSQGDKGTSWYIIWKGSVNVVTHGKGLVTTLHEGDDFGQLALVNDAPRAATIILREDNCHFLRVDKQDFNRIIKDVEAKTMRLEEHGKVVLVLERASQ
Protocol: Next we investigated whether a direct covalent linkage between the catalytic domain and the B-site is essential for this regulation, or whether they can function as separate domains. We therefore isolated the regulatory domains of both Epac1 and Epac2 and incubated them with the corresponding catalytic domains.
For purification of Glutathione S-transferase (GST) -fusion constructs all cDNAs were cloned in pGEX bacterial expression vectors. […] The GST fusion construct of Repac contains amino acids 2-580. The catalytic domain CalDAG-GEFI contains amino acids 3-422. The catalytically active PDZ-GEF1 construct contains amino acids 251-1001. The GST-PKA fusion construct used contained the R1a-subunit of Bovine PKA, lacking amino acids 1-91. Protein production was induced in Bl-21 bacteria using 100 nM IPTG for 20 h at room temperature. After protein production, bacteria were pelleted and lyzed in ice-cold PBS containing 1% Triton-X100 and protease inhibitors. The lysate was sonicated three times for 10 seconds and centrifuged at 10,000 x g to remove insoluble material. […]
Briefly, 100 nM of purified GTPase, loaded with fluorescently labeled 2',3'-bis (O) -N-methylantharanoloyl-guanosinediphosphate(mantGDP), was incubated, in the presence of excess unlabelled GDP, with 50 nM of purified GEF unless indicated differently. Release of mGDP was measured in realtime as a decrease in fluorescence. […]

[2] = target: catalytic domain of Epac2 (Mus musculus, UniProt Q9EQZ6)
catalytic domain of Epac2, sequence (Q9EQZ6 478-1011): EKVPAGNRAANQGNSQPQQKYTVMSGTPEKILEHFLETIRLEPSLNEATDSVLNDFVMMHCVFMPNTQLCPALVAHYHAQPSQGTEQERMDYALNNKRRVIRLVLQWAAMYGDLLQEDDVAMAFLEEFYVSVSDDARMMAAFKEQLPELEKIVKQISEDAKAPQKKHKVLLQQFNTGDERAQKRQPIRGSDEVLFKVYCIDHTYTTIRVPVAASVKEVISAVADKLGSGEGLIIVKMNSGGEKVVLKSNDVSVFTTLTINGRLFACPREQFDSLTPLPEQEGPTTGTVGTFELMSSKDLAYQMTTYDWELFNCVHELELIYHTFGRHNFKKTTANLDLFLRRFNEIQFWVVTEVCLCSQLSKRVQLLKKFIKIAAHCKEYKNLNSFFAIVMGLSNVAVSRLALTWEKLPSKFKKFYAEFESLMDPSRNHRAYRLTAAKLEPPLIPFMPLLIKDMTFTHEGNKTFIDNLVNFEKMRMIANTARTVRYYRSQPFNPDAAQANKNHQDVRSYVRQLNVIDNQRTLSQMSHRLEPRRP
catalytic domain of Epac2, sequence (Q9EQZ6 1-463 isoform Q9EQZ6-3 partner): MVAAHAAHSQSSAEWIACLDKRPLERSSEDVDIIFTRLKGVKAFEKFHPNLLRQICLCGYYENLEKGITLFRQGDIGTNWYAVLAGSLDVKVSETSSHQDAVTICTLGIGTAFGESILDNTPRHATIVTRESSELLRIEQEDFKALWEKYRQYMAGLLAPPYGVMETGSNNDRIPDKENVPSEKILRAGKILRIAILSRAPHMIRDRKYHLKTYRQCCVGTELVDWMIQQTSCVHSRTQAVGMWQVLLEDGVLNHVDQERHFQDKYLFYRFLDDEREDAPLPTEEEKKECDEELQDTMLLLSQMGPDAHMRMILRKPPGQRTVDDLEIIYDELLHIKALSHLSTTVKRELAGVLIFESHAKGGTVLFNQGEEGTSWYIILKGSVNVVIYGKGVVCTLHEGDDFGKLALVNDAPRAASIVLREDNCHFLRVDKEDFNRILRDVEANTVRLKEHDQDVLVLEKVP
Protocol: We therefore isolated the regulatory domains of both Epac1 and Epac2 and incubated them with the corresponding catalytic domains.
Protein production was induced in Bl-21 bacteria using 100 nM IPTG for 20 h at room temperature. After protein production, bacteria were pelleted and lyzed in ice-cold PBS containing 1% Triton-X100 and protease inhibitors. The lysate was sonicated three times for 10 seconds and centrifuged at 10,000 x g to remove insoluble material. GST-fusion proteins we purified from the cleared lysate by batch-wise incubation with glutathione-agarose beads (Sigma), eluted from the beads in buffer containing 50 mM Tris pH 7.5, 100 mM NaCl, 10% glycerol and 10mM glutathione and dialyzed for 20 hours in the same buffer without glutathione. When indicated, proteins were cleaved from the GST-tag by incubation with thrombin and purified by gelfiltration.
Briefly, 100 nM of purified GTPase, loaded with fluorescently labeled 2',3'-bis (O) -N-methylantharanoloyl-guanosinediphosphate(mantGDP), was incubated, in the presence of excess unlabelled GDP, with 50 nM of purified GEF unless indicated differently. Release of mGDP was measured in realtime as a decrease in fluorescence. To calculate reaction rates, single exponential functions were fit using the program Grafit3.0 (Eritacus). […]

LFA-1 = assay: flow cytometry of mAB 24 epitope expression on Jurkat cells; assay type: cell-based; settings: Jurkat cells coincubated with mAB 24 and 400 µM MnCl2; relative to unstimulated
Protocol: The anti-aL integrin antibody mAB 24 recognizes a conformation-dependent ligand-induced epitope on LFA-1, and induction of the mAB 24 epitope correlates with increased LFA-1 affinity for ICAM (Dransfield and Hogg, 1989). […] This conformational change can also be induced by LFA-1 exposure to Mn^2+, independently of "inside-out" signalling. […] Incubation of cells with mAB 24 at 4°C abolished CD31 and Mn^2+ -induced mAB 24 expression to background levels (data not shown), consistent with the temperature-sensitivity of the mAB 24 epitope (Dransfield and Hogg, 1989). […]
Flow cytometric analysis of transfected cells was performed by cotransfecting Jurkat JHMI cells with […] pCMV-EGFP C1 plasmid (Promega) and the indicated cDNA constructs. […] Fluorescence intensity of EGFP-transfected cells was determined using a FACsCaliber flow cytometer and CellQuest software (both from Becton Dickinson).
Figure 4. […] Cells were sequentially stained with anti-b2 integrin antibody L15 and rabbit anti-mouse Ig-RPE-Cy5 conjugate, and GFP-expressing cells analysed by flow cytometry. […] Alternatively, unstimulated cells were coincubated with mAB 24 and 400 µM MnCl2 (Mn). mAB 24 expression was assessed by flow cytometry, and expression levels normalized to 1 for unstimulated GFP-alone cells in each experiment. […]

Compound: [Ca+2] [calcium]
efficiency of full length CalDAG-GEF in activating Rap1 (full length CalDAG-GEF 1): became as efficient as the mutant

Compound: CCCCCCCCCCCCCC(=O)O[C@@H]1[C@@H](C)[C@@]2(O)[C@@H](C=C(CO)C[C@]3(O)C(=O)C(C)=C[C@@H]23)[C@@H]2C(C)(C)[C@]12OC(C)=O [TPA]
activation of Ras (Ras): activated | activation of Rap1 (Rap1): activated

effect on inhibition of the catalytic domain by the regulatory domain [1]: abolishes the inhibitory effect | effect on inhibition of the catalytic domain by the regulatory domain [2]: abolishes the inhibitory effect
Compound: Nc1ncnc2c1ncn2[C@@H]1O[C@@H]2COP(=O)(O)O[C@H]2[C@H]1O [cAMP]

Compound: [Cl][Mn][Cl] [Mn^2+, MnCl2]
increase in mAB 24 expression (LFA-1): 2.25-2.5 fold
